Some test systems named below: UACC-62 melanoma; NCI-H23 lung; A498 renal; LOX IMVI melanoma; U251 CNS; M14 melanoma; OVCAR-8 ovarian; BT-549 breast; SK-MEL-2 melanoma; 786-0 renal.
What all share (assay): NCI tumour cell line growth inhibition, 48 h

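The compound was tested at five concentrations on cells cultured in 96-well plates, with a 48-hour exposure period. At the GI50, growth is halved. TGI: concentration producing complete growth inhibition.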

In the case of `Nc1ccc(-n2c(=O)oc3ccc(Cl)cc3c2=O)c(Cl)c1`, the GI50 with UACC-62 melanoma is 0.0527 µM; in the assay on NCI-H23 lung, 0.0921 µM; in the assay with A498 renal, 0.0372 µM; with LOX IMVI melanoma, 0.128 µM; with U251 CNS it was 0.118 µM; in the assay on M14 melanoma it was 0.104 µM. Moreover, the GI50 in the assay with OVCAR-8 ovarian was 0.147 µM; in the assay with BT-549 breast, 0.0844 µM; in the assay on SK-MEL-2 melanoma, 0.207 µM. For the same molecule, the TGI in the assay with UACC-62 melanoma is 0.22 µM; in the assay on NCI-H23 lung it was 0.486 µM; with A498 renal, 0.114 µM; in the assay with LOX IMVI melanoma, 0.946 µM; in the assay on U251 CNS, more than 34.5 µM; in the assay on M14 melanoma, 0.68 µM. In addition, the values for the TGI in the assay with OVCAR-8 ovarian, in the assay on BT-549 breast and in the assay with SK-MEL-2 melanoma were 5.53 µM, 0.338 µM and 0.807 µM, respectively.

On to `CCOC(=O)C(C)c1nc2cc(N3CCN(C)CC3)c(F)cc2[nH]c1=O` (configuration not stated), for which the TGI with 786-0 renal, with UACC-62 melanoma, in the assay on NCI-H23 lung, in the assay on A498 renal, in the assay with U251 CNS and in the assay on M14 melanoma was more than 100 µM in each case. The TGI with OVCAR-8 ovarian, in the assay on BT-549 breast and in the assay on SK-MEL-2 melanoma was more than 100 µM in each case.

For the molecule `CC(C)(C)OC(=O)NCC(=O)N1CCCN(C(=O)CNC(=O)OC(C)(C)C)CC1`, the TGI in the assay with 786-0 renal, in the assay on UACC-62 melanoma, in the assay on NCI-H23 lung, with A498 renal, with LOX IMVI melanoma and in the assay with U251 CNS was more than 100 µM each time. In addition, the TGI in the assay on M14 melanoma, in the assay on OVCAR-8 ovarian, in the assay on BT-549 breast and in the assay with SK-MEL-2 melanoma was more than 100 µM throughout.

As for `O=C1C[C@H](c2ccccc2)C2(C(=O)c3ccccc3C2=O)[C@H](c2ccccc2)C1`, the TGI in the assay on UACC-62 melanoma, in the assay on NCI-H23 lung, in the assay with A498 renal, with U251 CNS, in the assay on M14 melanoma and in the assay with OVCAR-8 ovarian was more than 100 µM each time. Moreover, the TGI in the assay on BT-549 breast and in the assay on SK-MEL-2 melanoma was more than 100 µM in each case.

For `Nc1c(S(=O)(=O)O)cc(Nc2cccc(S(=O)(=O)/C=C/S(=O)(=O)O)c2)c2c1C(=O)c1ccccc1C2=O`, the TGI in the assay on 786-0 renal, in the assay on UACC-62 melanoma, in the assay on NCI-H23 lung, in the assay with A498 renal, with LOX IMVI melanoma and in the assay with U251 CNS was more than 100 µM in each case. For the same molecule, the TGI in the assay on M14 melanoma, in the assay on OVCAR-8 ovarian, in the assay on BT-549 breast and in the assay on SK-MEL-2 melanoma was more than 100 µM in each case.

For `COc1ccc(/C=N/n2c(Cc3ccc(Cl)cc3)n[nH]c2=O)c(OC)c1`, the TGI was 52.8 µM with 786-0 renal; 66.6 µM in the assay on UACC-62 melanoma; more than 100 µM with NCI-H23 lung; 51.1 µM in the assay on A498 renal; more than 100 µM in the assay with LOX IMVI melanoma; more than 100 µM in the assay with U251 CNS. The TGI in the assay with M14 melanoma was more than 100 µM; with OVCAR-8 ovarian, 95.5 µM; in the assay on BT-549 breast it was 67 µM; in the assay with SK-MEL-2 melanoma it was more than 100 µM.

As to `CCOc1cc(C2SCC(=O)N2c2nc3cc4sc(N5C(=O)CSC5c5ccc(O)c(OCC)c5)nc4cc3s2)ccc1O` (configuration not stated), the TGI with 786-0 renal, in the assay on UACC-62 melanoma, in the assay with NCI-H23 lung, in the assay with A498 renal, in the assay on LOX IMVI melanoma and in the assay on U251 CNS was more than 100 µM each time. In addition, the TGI was more than 100 µM in the assay with M14 melanoma, more than 100 µM in the assay on OVCAR-8 ovarian, more than 85.4 µM in the assay on BT-549 breast and more than 100 µM with SK-MEL-2 melanoma.

Take `O=C1C(N=Nc2ccc(-c3nc4ccccc4[nH]3)cc2)NC(=S)N1c1ccccc1` (configuration not stated): the TGI in the assay with 786-0 renal is 39 µM; in the assay on UACC-62 melanoma, more than 100 µM; in the assay with NCI-H23 lung, more than 100 µM; in the assay with A498 renal, more than 100 µM; in the assay on LOX IMVI melanoma, 39.4 µM; in the assay with U251 CNS it was more than 100 µM. For the same molecule, the TGI in the assay with M14 melanoma, in the assay on OVCAR-8 ovarian, in the assay on BT-549 breast and in the assay with SK-MEL-2 melanoma was more than 100 µM throughout.

In the case of `CC(C)(C)c1cc(C2COC(=O)COCC(=O)OCCOCCOCCO2)cc(C(C)(C)C)c1O` (configuration not stated), the TGI in the assay with 786-0 renal was 43.3 µM; in the assay on UACC-62 melanoma, more than 69.1 µM; in the assay with NCI-H23 lung, more than 100 µM; in the assay with A498 renal, more than 91.9 µM; in the assay with LOX IMVI melanoma, more than 80.2 µM; in the assay on U251 CNS, more than 100 µM. The TGI in the assay on M14 melanoma was 41.3 µM; with OVCAR-8 ovarian, more than 100 µM; with BT-549 breast, more than 100 µM; with SK-MEL-2 melanoma, 90.3 µM.

Take `Cc1ccc2nc(Cl)c(/C=N/N3C(=O)/C(=C/c4ccc(N(C)C)cc4)N=C3c3ccccc3)cc2c1`: the TGI in the assay with 786-0 renal, in the assay with UACC-62 melanoma, in the assay on A498 renal, with LOX IMVI melanoma, with U251 CNS and with M14 melanoma was more than 100 µM each time. Further, the TGI is more than 100 µM in the assay with OVCAR-8 ovarian, more than 100 µM in the assay on BT-549 breast and 98.7 µM in the assay on SK-MEL-2 melanoma.

For the molecule `COC1/C=C/C(C)C(C(C)C(OC)C(C)CCC(=O)C(C)C(C/C=C/N(C)C=O)OC)OC(=O)/C=C/C=C(\C)CC(OC)C(OC)C2=CC(=O)O[C@@H](C(C)C(OC)CC(OC)/C=C/C(C)C(O)C1)[C@H]2O` (some centres not stated), the TGI is 0.434 µM in the assay with 786-0 renal; 0.314 µM in the assay with UACC-62 melanoma; 0.373 µM in the assay with NCI-H23 lung; 0.233 µM with A498 renal; 0.0755 µM in the assay with LOX IMVI melanoma; 0.301 µM in the assay on U251 CNS. Besides, the TGI was found to be 0.309 µM in the assay with M14 melanoma, 0.829 µM in the assay with OVCAR-8 ovarian, 0.544 µM in the assay on BT-549 breast and 0.388 µM with SK-MEL-2 melanoma.

As to `COc1ccc2c(c1)CC[C@@H]1[C@@H]2CC[C@]2(C)C(=O)/C(=C/c3cc(OC)c(OC)c(OC)c3)C[C@@H]12`, the TGI was 39 µM with 786-0 renal; more than 100 µM in the assay with UACC-62 melanoma; 53.3 µM in the assay with NCI-H23 lung; more than 100 µM in the assay on A498 renal; more than 100 µM with U251 CNS; 41.2 µM with M14 melanoma. In addition, the figures for the TGI with BT-549 breast and with SK-MEL-2 melanoma were 63.9 µM and 41.6 µM, respectively.

The record behind these values is PubChem BioAssay (NCI).
